The test system of the data set is RIG-I. Nature of the data set: IRF3 activation in RIG-I or MDA5 knockout HepG2-hNTCP cells (immunoblot). The class given is cell-based, human. To be noted: 24 hours. The procedure:
FIGS. 6A-6D illustrate that F7 and poly-U/UC PAMP specifically signal IRF3 activation through RIG-I to suppress HBV cccDNA. (6A) F7 was administered for 24 hours to HepG2-hNTCP-NT (expressing non-targeting guide RNA), RKO (RIG-I knockout expressing RIG-I-targeting guide RNA), and MKO (MDA5-knock out expressing MDA5-targeting guide RNA). Cells were harvested and analyzed by immunoblot. The levels of protein expression by p-IRF3 (S386 phosphorylated, active IRF3), IRF3 (total IRF), IFIT1, RIG-I, and MDA5 relative to the expression level of tubulin were determined using respective antibodies. (6B) HepG2-hNTCP-NT, RKO, and MKO cells were treated with 100 ng,/ml of X-RNA or 100 ng/ml or 200 ng/ml of poly-U/UC PAMP for 24 hr. Cells were harvested and analyzed by immunoblot as in (6A). (6C and 6D) Cells were infected with HBV at moi of 1000 Geq/cell. After 24 hour cultures were treated with DMSO (−; negative control), CsA (treatment control), (6C) 10 μM) or F7 or (6D) X RNA or poly-U/UC PAMP. Three days later the cells were harvested, Hirt extracts prepared and subjected to Southern blot analysis using as HBV-DNA probe. The positions of mass markers are indicated. Values beneath each lane show percent cccDNA remaining compared to control treatment.
In order to ascertain whether the activation of IRF3 and suppression of cccDNA in HBV-infected cells by F7 or poly-U/UC PAMP treatment was dependent on RIG-I rather than occurring as an off-target effect of IRF3 agonist treatment, HepG2-hNTCP cells expressing non-targeting guide RNA (HepG2-hNTCP-NT), or guide RNA for knockout (KO) of RIG-I expression (HepG2-hNTCP-RKO) or MDA5 (HepG2-hNTCP-MKO) were produced using CRISPR/Cas9 genome editing technology. […] Next, each cell population was infected with HBV followed by a single treatment with F7 or poly-U/UC PAMP at 1 dpi. Cells were harvested at 3 dpi for Southern blot analysis of cccDNA levels. Parallel cultures of each cell population were treated with DMSO or single dose X-RNA (negative control) or with CsA as a treatment control. […]
On the technique in general: A western blot detects proteins with antibodies after separation by electrophoresis.

Setting [1] is: HepG2-hNTCP-RKO (RIG-I knockout) cells.

{ppp} = triphosphate

Consider `O=C(Nc1ccc2nc(NC(=O)c3ccc4ccccc4c3)sc2c1)c1ccccc1` [F7, N-(6-benzamido-1,3-benzothiazol-2-yl)naphthalene-2-carboxamide], for which the “phosphorylated/activated IRF3 and IFIT1 expression” value reads like this: (HepG2-hNTCP-NT control and HepG2-hNTCP-MKO (MDA5 knockout) cells) “fully respond to F7”; under setting [1], “do not respond to treatment”.

B1: poly-U/UC PAMP: ~100 nt PAMP motif from the HCV genome comprising 5′ppp and the poly U/UC region, recognized by RIG-I; formulated in liposome (nucleic acid)
chain: GGCCAUCCUGUUUUUUUCCCUUUUUUUUUUUCUUUUUUUUUUUUUUUUUUUUUUUUUUUUUUUUUUCUCCUUUUUUUUUCCUCUUUUUUUCCUUUUCUUUCCUUU
modifications: RNA, 5' {ppp}, backbone and methylation of C not given here; formulated in liposome
notes: ~100 nt PAMP motif from the HCV genome comprising 5′ppp and the poly U/UC region, recognized by RIG-I; formulated in liposome
For B1, the “phosphorylated/activated IRF3 and IFIT1 expression” value under setting [1] is recorded as “do not respond to treatment”.

(Values after patent US20220241314A1, “COMPOSITIONS AND METHODS FOR TREATMENT OF HEPATITIS B VIRUS INFECTION” (priority 2019, published 2022).)
